Data: patent US20240067654A1 (Kinoxis Therapeutics Pyt Ltd, priority 2020, published 2024)
Blank lines part the entries; values can stand above or below the molecule they belong to.

Tests used:
OTR [1] = target: T1, OTR (Homo sapiens, UniProt P30559); test: Modulation of oxytocin-evoked intracellular IP1 and Ca2+ increase: OT dose-response in presence and absence of 10 μM compound; conditions: for change in OT potency seen in OT dose-response curves (figure legend): 10 μM of compound; for Relative Potency: OT potency with 10 μM compound relative to OT only
T1 sequence (P30559 1-389): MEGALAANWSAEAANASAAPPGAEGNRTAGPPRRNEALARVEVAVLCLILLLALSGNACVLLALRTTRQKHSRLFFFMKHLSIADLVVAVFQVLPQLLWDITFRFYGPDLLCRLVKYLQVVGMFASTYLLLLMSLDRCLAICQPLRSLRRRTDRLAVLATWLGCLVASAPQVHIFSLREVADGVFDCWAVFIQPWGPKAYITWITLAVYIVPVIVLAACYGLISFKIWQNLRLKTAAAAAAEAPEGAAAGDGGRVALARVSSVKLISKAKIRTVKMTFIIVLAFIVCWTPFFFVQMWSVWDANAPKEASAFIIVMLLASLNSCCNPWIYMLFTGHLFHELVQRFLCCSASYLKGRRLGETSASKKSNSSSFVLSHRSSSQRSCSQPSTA
Description: These assays were performed using commercial kits (IP1 HTRF from Cisbio and Fluo-4AM from Invitrogen), according to the manufacturer's protocol.

OTR [2] = target: T1, OTR; test: Tritiated OT (3H-OT) displacement; assay type: binding; parameters: expressed in transfected cells; host or cells: HEK cells, Flp-In TREX system (Invitrogen); conditions: Kd concentration of 3H-OT; compound at a concentration up to 10 μM
OTR [3] = target: T1, OTR; test: Calcium (Ca2+) influx induced by OT in the presence of various concentrations of compound 3 (HEK assay); assay type: cell-based; parameters: expressed in transfected cells; host or cells: HEK cells, Flp-In TREX system (Invitrogen)
rat V1aR = rat V1aR (Rattus norvegicus, UniProt P30560); conditions: cited from earlier work
Chain of rat V1aR (P30560 whole entry): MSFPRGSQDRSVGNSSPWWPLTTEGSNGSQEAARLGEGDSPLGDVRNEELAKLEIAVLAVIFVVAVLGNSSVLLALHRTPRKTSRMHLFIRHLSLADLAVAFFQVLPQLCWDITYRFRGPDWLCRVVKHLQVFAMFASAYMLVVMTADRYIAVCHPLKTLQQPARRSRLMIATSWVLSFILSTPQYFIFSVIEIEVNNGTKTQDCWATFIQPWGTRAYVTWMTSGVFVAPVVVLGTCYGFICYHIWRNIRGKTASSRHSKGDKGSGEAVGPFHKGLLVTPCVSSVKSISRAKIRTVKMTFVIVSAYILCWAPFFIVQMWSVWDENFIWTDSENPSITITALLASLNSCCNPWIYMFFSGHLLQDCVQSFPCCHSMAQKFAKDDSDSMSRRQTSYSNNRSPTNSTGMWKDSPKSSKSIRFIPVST

[4] = in vivo; cited from earlier work
[5] = rat, in vivo; cited from earlier work
human V1aR = human V1aR (Homo sapiens, UniProt P37288); conditions: cited from earlier work
Chain of human V1aR (P37288 whole entry): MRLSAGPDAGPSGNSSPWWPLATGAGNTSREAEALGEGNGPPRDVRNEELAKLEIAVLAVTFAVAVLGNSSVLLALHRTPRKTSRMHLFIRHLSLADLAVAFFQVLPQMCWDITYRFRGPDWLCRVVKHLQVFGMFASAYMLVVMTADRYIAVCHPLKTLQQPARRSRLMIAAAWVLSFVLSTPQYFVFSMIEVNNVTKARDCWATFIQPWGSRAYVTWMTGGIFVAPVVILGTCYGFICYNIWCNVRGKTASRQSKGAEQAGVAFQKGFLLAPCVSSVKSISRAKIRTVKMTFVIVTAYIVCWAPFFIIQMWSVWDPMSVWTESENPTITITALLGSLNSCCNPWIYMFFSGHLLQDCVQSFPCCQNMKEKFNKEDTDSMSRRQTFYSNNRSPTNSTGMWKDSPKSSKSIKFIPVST

SMILES: Cn1ncc2c1c1ccccc1n2C(=O)c1ccc(F)cc1 [Compound 10]
change in OT potency seen in OT dose-response curves (figure legend) (OTR [1]): improvement in OT potency
Relative Potency (OTR [1]; Table 7 group): 2.5

SMILES: Cn1ncc2c3ccccc3n(C(=O)c3cccc(F)c3)c21 [Compound 32]
Relative Potency (OTR [1]; Table 5 group): 3.4

SMILES: Cn1ncc2c3ccccc3n(C(=O)c3ccccc3)c21 [Compound 31]
Relative Potency (OTR [1]; Table 5 group): 5.0

SMILES: Cc1ccc(C(=O)n2c3ccccc3c3c2cnn3C)cc1 [Compound 4]
melting point: 167 to 169 °C
change in OT potency seen in OT dose-response curves (figure legend) (OTR [1]): improvement in OT potency
Relative Potency (OTR [1]; Table 3 group): 2.9

SMILES: Cn1ncc2c1c1ccccc1n2C(=O)c1ccc(Cl)c(Cl)c1 [Compound 6]
melting point: 142 to 143 °C
change in OT potency seen in OT dose-response curves (figure legend) (OTR [1]): improvement in OT potency
Relative Potency (OTR [1]; Table 3 group): 2.9

SMILES: COc1ccc(C(=O)n2c3ccccc3c3c2cnn3C)cc1 [Compound 7]
melting point: 136 to 138 °C
change in OT potency seen in OT dose-response curves (figure legend) (OTR [1]): improvement in OT potency
Relative Potency (OTR [1]; Table 7 group): 2.1

SMILES: Cn1ncc2c1c1ccccc1n2C(=O)C12CC3CC(CC(C3)C1)C2 [Compound 23]
change in OT potency seen in OT dose-response curves (figure legend) (OTR [1]): improvement in OT potency
Relative Potency (OTR [1]; Table 4 group): 3.4

SMILES: Cn1ncc2c1c1ccccc1n2C(=O)c1cccc2ncccc12 [Compound 29]
change in OT potency seen in OT dose-response curves (figure legend) (OTR [1]): improvement in OT potency
Relative Potency (OTR [1]; Table 8 group, n = 2): 2.8

SMILES: CC[C@H](C)[C@@H]1NC(=O)[C@H](Cc2ccc(O)cc2)NC(=O)[C@@H](N)CSSC[C@@H](C(=O)N2CCC[C@H]2C(=O)N[C@@H](CC(C)C)C(=O)NCC(N)=O)NC(=O)[C@H](CC(N)=O)NC(=O)[C@H](CCC(N)=O)NC1=O [OT, Oxytocin]
affinity of OT at V1aR (rat V1aR): 78 nM
fraction of intranasal OT that enters the brain [4]: 0.002-0.005%
half-life in blood [5]: 3 to 8 min
affinity of OT at V1aR (human V1aR): 120 nM

Now from value to molecule, other results behind:

change in OT potency seen in OT dose-response curves (figure legend) (OTR [1]): improvement in OT potency
Relative Potency (OTR [1]; Table 7 group): 2.6
SMILES: Cn1ncc2c1c1ccccc1n2C(=O)C1CCOCC1 [Compound 16]

Relative Potency (OTR [1]; Table 5 group): 3.7
SMILES: Cn1ncc2c3ccccc3n(C(=O)C3CCCCC3)c21 [Compound 33]

change in OT potency seen in OT dose-response curves (figure legend) (OTR [1]): improvement in OT potency
Relative Potency (OTR [1]; Table 4 group): 2.5
SMILES: Cn1ncc2c1c1ccccc1n2C(=O)C1CCCCCC1 [Compound 13]

change in OT potency seen in OT dose-response curves (figure legend) (OTR [1]): improvement in OT potency
Relative Potency (OTR [1]; Table 9 group): 3.7
SMILES: Cn1ccc2c1c1ccccc1n2C(=O)C1CCCCC1 [Compound 35]

melting point: 91.1 to 92.8 °C
change in OT potency seen in OT dose-response curves (figure legend) (OTR [1]): improvement in OT potency
Relative Potency (OTR [1]; Table 2 group): 8.4
SMILES: Cn1ncc2c1c1ccccc1n2C(=O)c1cccc(F)c1 [Compound 2]
displacement of the binding of 3H-OT (OTR [2]): None of compounds 1, 2 or 3 displaced ^3H-OT

change in OT potency seen in OT dose-response curves (figure legend) (OTR [1]): improvement in OT potency
Relative Potency (OTR [1]; Table 7 group): 2.6
SMILES: CCCCC(=O)n1c2ccccc2c2c1cnn2C [Compound 14]

melting point: 140.3 to 141.2 °C
Relative Potency (OTR [3]; OT + 0.01 μM compound 3, relative to 0 μM): 0.64
Relative Potency (OTR [3]; OT + 0.03 μM compound 3, relative to 0 μM): 0.47
Relative Potency (OTR [3]; OT + 0.3 μM compound 3, relative to 0 μM): 2.83
Relative Potency (OTR [3]; OT + 1 μM compound 3, relative to 0 μM): 3.90
Relative Potency (OTR [3]; OT + 10 μM compound 3, relative to 0 μM): 19.0
change in OT potency seen in OT dose-response curves (figure legend) (OTR [1]): improvement in OT potency
Relative Potency (OTR [1]; Table 2 group): 5.5
SMILES: Cn1ncc2c1c1ccccc1n2C(=O)C1CCCCC1 [Compound 3]
displacement of the binding of 3H-OT (OTR [2]): None of compounds 1, 2 or 3 displaced ^3H-OT

change in OT potency seen in OT dose-response curves (figure legend) (OTR [1]): improvement in OT potency
Relative Potency (OTR [1]; Table 4 group): 2.3
SMILES: Cn1ncc2c1c1ccccc1n2C(=O)C1CCCC1 [Compound 12]

melting point: 145 to 147 °C
change in OT potency seen in OT dose-response curves (figure legend) (OTR [1]): improvement in OT potency
Relative Potency (OTR [1]; Table 3 group): 3.1
SMILES: Cn1ncc2c1c1ccccc1n2C(=O)c1ccc(Cl)cc1 [Compound 5]

change in OT potency seen in OT dose-response curves (figure legend) (OTR [1]): improvement in OT potency
Relative Potency (OTR [1]; Table 6 group): 2.3
SMILES: Cn1ncc2c1c1ccccc1n2C(=O)N1CCCCC1 [Compound 42]

change in OT potency seen in OT dose-response curves (figure legend) (OTR [1]): improvement in OT potency
Relative Potency (OTR [1]; Table 6 group): 2.6
SMILES: Cn1ncc2c1c1ccccc1n2S(=O)(=O)C1CCCCC1 [Compound 43]

melting point: 152.6 to 153.2 °C
change in OT potency seen in OT dose-response curves (figure legend) (OTR [1]): improvement in OT potency
Relative Potency (OTR [1]; Table 2 group): 10.4
SMILES: Cn1ncc2c1c1ccccc1n2C(=O)c1ccccc1 [Compound 1]
displacement of the binding of 3H-OT (OTR [2]): None of compounds 1, 2 or 3 displaced ^3H-OT
